Data reported in patent US9422296B2, “Fast-dissociating dopamine 2 receptor antagonists” (Janssen Pharmaceutica NV, priority 2007, dated 2016).
Counter-ions that a name gives are not always drawn. Like-named read-outs stand apart in the source and are kept apart here.

Assays:
[1] = target: T1, human Serotonin 5HT6 receptor (Homo sapiens, UniProt P50406); experiment: In vitro binding affinity for human 5HT6 receptor ([3H]lysergic acid diethylamide); conditions: [3H]LSD, membranes of human 5HT6 receptor-transfected HEK cells; for IC50: read-out: 5-HT6 binding pIC50 (converted)
T1 construct: expressed in transfected cells; host or cells: HEK cells (membranes)
T1 sequence (P50406 whole entry): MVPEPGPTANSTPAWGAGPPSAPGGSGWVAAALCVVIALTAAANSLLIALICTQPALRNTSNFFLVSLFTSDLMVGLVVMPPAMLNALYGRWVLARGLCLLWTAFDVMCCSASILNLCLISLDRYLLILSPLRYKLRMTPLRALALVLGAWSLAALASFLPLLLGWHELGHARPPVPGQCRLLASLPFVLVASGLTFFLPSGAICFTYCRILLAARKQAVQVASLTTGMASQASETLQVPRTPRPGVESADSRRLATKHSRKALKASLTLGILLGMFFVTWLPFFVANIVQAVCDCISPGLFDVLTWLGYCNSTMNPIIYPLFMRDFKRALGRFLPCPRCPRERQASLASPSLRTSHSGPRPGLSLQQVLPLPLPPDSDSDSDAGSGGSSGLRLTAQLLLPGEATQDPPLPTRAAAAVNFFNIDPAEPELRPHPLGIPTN
Experimental: In Vitro Binding Affinity for Human 5HT6 Receptor
Frozen membranes of human Serotonin 5HT6 receptor-transfected HEK cells were thawed, briefly homogenized using an Ultra-Turrax T25 homogeniser and diluted in 50 mM Tris-HCl assay buffer containing 10 mM MgCl2, 1 mM EDTA and 10 μM Pargyline (adjusted to pH 7.4 with HCl) to an appropriate protein concentration optimized for specific and non-specific binding. Radioligand [^3H]Lysergic acid diethylamide (Perkin Elmer, specific activity ˜80 Ci/mmol) was diluted in assay buffer at a concentration of 20 nM. Radioligand (20 μl), along with 40 μl of either the 10% DMSO control, Methiothepine (10^−5 M final concentration), or compound of interest, was then incubated with 70 μl of the prepared membrane solution and 70 μl of WGA coated PVT beads (0.25 mg/well final concentration). After shaking for 24 hours at RT plates were counted in a Topcount™ scintillation counter. Percentage specific binding and competition binding curves were calculated using S-Plus software (Insightful).

[2] = target: T2, human Dopamine D3 receptor (Homo sapiens, UniProt P35462); experiment: In vitro binding affinity for human D3 receptor ([125I]iodosulpride)
T2 construct: expressed in transfected cells; host or cells: CHO cells (membranes)
T2 sequence (P35462 whole entry): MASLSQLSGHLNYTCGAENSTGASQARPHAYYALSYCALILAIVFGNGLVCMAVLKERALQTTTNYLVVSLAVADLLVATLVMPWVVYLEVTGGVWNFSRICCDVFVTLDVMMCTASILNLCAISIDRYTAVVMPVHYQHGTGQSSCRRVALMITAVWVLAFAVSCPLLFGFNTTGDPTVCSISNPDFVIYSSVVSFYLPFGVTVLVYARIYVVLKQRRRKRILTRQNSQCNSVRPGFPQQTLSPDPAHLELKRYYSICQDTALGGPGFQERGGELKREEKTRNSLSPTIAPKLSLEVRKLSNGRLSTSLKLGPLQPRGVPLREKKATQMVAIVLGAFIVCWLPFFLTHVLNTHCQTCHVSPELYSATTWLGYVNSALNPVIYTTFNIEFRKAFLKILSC
Experimental: In Vitro Binding Affinity for Human D3 Receptor
Frozen membranes of human Dopamine D3 receptor-transfected CHO cells were thawed, briefly homogenized using an Ultra-Turrax T25 homogeniser and diluted in 50 mM Tris-HCl assay buffer containing 120 mM NaCl, 2 mM CaCl2, 1 mM MgCl2, 5 mM KCl and 0.1% BSA (adjusted to pH 7.4 with HCl) to an appropriate protein concentration optimized for specific and non-specific binding. Radioligand [^125I]Iodosulpride (Amersham, specific activity ˜2000 Ci/mmol) was diluted in assay buffer at a concentration of 2 nM. Prepared radioligand (20 μl), along with 40 μl of either the 10% DMSO control, Risperidone (10^−6M final concentration), or compound of interest, was then incubated with 70 μl of the prepared membrane solution and 70 μl of WGA coated PVT beads (0.25 mg/well final concentration). After shaking for 24 hours at RT plates were counted in a Topcount™ scintillation counter. Percentage specific binding and competition binding curves were calculated using S-Plus software (Insightful).

[3] = target: T3, human Dopamine D2L receptor (Homo sapiens, UniProt P14416); experiment: In vitro binding affinity for human D2L receptor ([3H]spiperone); conditions: membranes of human D2L receptor-transfected CHO cells, read-out: D2L binding pIC50 (converted)
T3 construct: expressed in transfected cells; host or cells: CHO cells (membranes)
T3 sequence (P14416 whole entry): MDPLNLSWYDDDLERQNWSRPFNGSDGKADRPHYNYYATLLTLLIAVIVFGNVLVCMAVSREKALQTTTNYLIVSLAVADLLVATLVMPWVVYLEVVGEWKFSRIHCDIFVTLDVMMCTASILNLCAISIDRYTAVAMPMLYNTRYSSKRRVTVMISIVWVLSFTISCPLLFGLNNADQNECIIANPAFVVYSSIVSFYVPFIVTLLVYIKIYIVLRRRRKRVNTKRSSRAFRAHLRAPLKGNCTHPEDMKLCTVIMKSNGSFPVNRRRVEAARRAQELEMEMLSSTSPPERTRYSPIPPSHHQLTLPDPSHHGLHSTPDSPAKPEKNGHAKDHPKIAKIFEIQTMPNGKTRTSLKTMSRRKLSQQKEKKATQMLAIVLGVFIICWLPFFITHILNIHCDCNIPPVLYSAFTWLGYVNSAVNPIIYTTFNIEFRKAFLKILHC
Text: In order to find antipsychotic compounds active against positive and negative symptoms and cognitive impairment, and having an improved safety profile (low EPS incidence and no metabolic disorders), we have screened for compounds selectively interacting with the dopamine D2 receptor and dissociating fast from this receptor, and further having affinity for the dopamine D3 receptor as well as the serotonin 5-HT-6 receptor. Compounds were first screened for their D2 affinity in a binding assay using [^3H]spiperone and human D2L receptor cell membranes.
Pharmacology In Vitro Binding Affinity for Human D2L Receptor
Frozen membranes of human Dopamine D2L receptor-transfected CHO cells were thawed, briefly homogenised using an Ultra-Turrax T25 homogeniser and diluted in Tris-HCl assay buffer containing NaCl, CaCl2, MgCl2, KCl (50, 120, 2, 1, and 5 mM respectively, adjusted to pH 7.7 with HCl) to an appropriate protein concentration optimised for specific and non-specific binding. Radioligand [^3H]Spiperone (NEN, specific activity ˜70 Ci/mmol) was diluted in assay buffer at a concentration of 2 nmol/L. Prepared radioligand (50 μl), along with 50 μl of either the 10% DMSO control, Butaclamol (10^−6 mol/1 final concentration), or compound of interest, was then incubated (30 min, 37° C.) with 400 μl of the prepared membrane solution. Membrane-bound activity was filtered through a Packard Filtermate harvester onto GF/B Unifilterplates and washed with ice-cold Tris-HCl buffer (50 mM; pH 7.7; 6×0.5 ml). Filters were allowed to dry before adding scintillation fluid and counting in a Topcount scintillation counter. Percentage specific bound and competition binding curves were calculated using S-Plus software (Insightful).

[4] = [125I]iodosulpride, membranes of human D3 receptor-transfected CHO cells, read-out: D3 binding pIC50 (converted)

Compound	melting point	IC50 [1]	IC50 [2, 4]	IC50 [3]	5-HT6 binding pIC50 [1]	IC50 [2]
CCN1CCN(c2cc(-c3ccccc3)c(C(F)(F)F)nn2)CC1 (as salt: hydrochloric acid salt) [Example E2, 6-(4-Ethylpiperazin-1-yl)-4-phenyl-3-trifluoromethyl-pyridazine]	281.9 °C	–	–	–	–	–
C[C@@H]1CN(c2cc(-c3ccccc3)c(C(F)(F)F)nn2)C[C@H](C)N1 (as salt: hydrochloric acid salt) [Example E4, cis-6-(3,5-Dimethylpiperazin-1-yl)-4-phenyl-3-trifluoromethyl-pyridazine]	285.4 °C	–	–	–	–	–
FC(F)(F)c1nnc(N2CCNCC2)cc1-c1cccc2ccccc12 (as salt: hydrochloric acid salt) [Example E18]	281.8 °C	–	–	–	–	–
CN1CCN(c2cc(-c3ccccc3)c(C(F)(F)F)nn2)CC1 (as salt: hydrochloric acid salt) [Example E22]	163.3 °C	–	–	–	–	–
COc1ccccc1-c1cc(N2CCNCC2)nnc1C(F)(F)F (as salt: hydrochloric acid salt) [Example E31]	287.7 °C	–	–	–	–	–
CN(C)c1ccc(-c2cc(N3CCNCC3)nnc2C(F)(F)F)cc1 (as salt: hydrochloric acid salt) [Example E32]	198.7 °C	–	–	–	–	–
FC(F)(F)c1nnc(N2CCNCC2)cc1-c1cc(Cl)ccc1Cl (as salt: hydrochloric acid salt) [Example E34]	286.3 °C	–	–	–	–	–
FC(F)(F)c1nnc(N2CCN3CCCC3C2)cc1-c1ccccc1 (racemic) (as salt: hydrochloric acid salt) [Example E5, 2-(5-Phenyl-6-trifluoromethyl-pyridazin-3-yl)-octahydro-pyrrolo[1,2-a]pyrazine]	104.2 °C	–	–	–	–	–
CC1CN(c2cc(-c3ccccc3)c(C(F)(F)F)nn2)C(C)CN1 (racemic) (as salt: hydrochloric acid salt) [Example E26]	273 °C	–	–	–	–	–
CC1CN(c2cc(-c3ccccc3)c(C(F)(F)F)nn2)C(C)CN1 (racemic) [Example E26]	–	2290 nM	> 10000 nM	6030 nM	–	–
Fc1cc(F)cc(CN2CCN(c3cc(-c4ccccc4)c(C(F)(F)F)nn3)CC2)c1 [Example E3, 6-[4-(3,5-Difluorobenzyl)piperazin-1-yl]-4-phenyl-3-trifluoromethyl-pyridazine]	138.8 °C	–	> 10000 nM	617 nM	>5	–
C[C@@H]1CN(c2cc(-c3ccccc3)c(C(F)(F)F)nn2)C[C@H](C)N1 [Example E4, cis-6-(3,5-Dimethylpiperazin-1-yl)-4-phenyl-3-trifluoromethyl-pyridazine]	–	8510 nM	> 10000 nM	3800 nM	–	–
Cc1ccc(-c2cc(N3CCNCC3)nnc2C(F)(F)F)cc1 [Example E11]	110.6 °C	741 nM	89.1 nM	1260 nM	–	–
FC(F)(F)c1nnc(N2CCNCC2)cc1-c1ccc(Cl)cc1 [Example E12]	198.2 °C	1740 nM	347 nM	3630 nM	–	–
Oc1cccc(-c2cc(N3CCNCC3)nnc2C(F)(F)F)c1 [Example E13]	–	3550 nM	> 10000 nM	5130 nM	–	–
FC(F)(F)c1nnc(N2CCNCC2)cc1-c1ccc(Br)cc1 [Example E14]	138.2 °C	4270 nM	> 10000 nM	4070 nM	–	–
Fc1cccc(-c2cc(N3CCNCC3)nnc2C(F)(F)F)c1 [Example E15]	144.7 °C	1550 nM	631 nM	5750 nM	–	–
FC(F)(F)c1nnc(N2CCNCC2)cc1-c1cccc(Cl)c1 [Example E16]	178.8 °C	245 nM	550 nM	4790 nM	–	–
FC(F)(F)c1nnc(N2CCNCC2)cc1-c1ccc2ccccc2c1 [Example E17]	128.1 °C	437 nM	398 nM	7940 nM	–	–

Compound	melting point	IC50 [1]	IC50 [2, 4]	IC50 [3]	5-HT6 binding pIC50 [1]	IC50 [2]
FC(F)(F)c1nnc(N2CCNCC2)cc1-c1cccc2ccccc12 [Example E18]	–	158 nM	> 10000 nM	7760 nM	–	–
FC(F)(F)c1nnc(N2CCNCC2)cc1-c1cccs1 [Example E19]	112.6 °C	1950 nM	148 nM	1380 nM	–	–
Clc1nnc(N2CCNCC2)cc1-c1ccccc1 [Example E20]	173.9 °C	4370 nM	151 nM	1410 nM	–	–
Fc1ccc(CN2CCN(c3cc(-c4ccccc4)c(C(F)(F)F)nn3)CC2)cc1F [Example E21]	185.1 °C	–	1480 nM	2000 nM	>5	–
CN1CCN(c2cc(-c3ccccc3)c(C(F)(F)F)nn2)CC1 [Example E22]	–	1260 nM	38.9 nM	776 nM	–	–
FC(F)(F)c1nnc(N2CCN(C3CC3)CC2)cc1-c1ccccc1 [Example E23]	152 °C	> 10000 nM	275 nM	1860 nM	–	–
CCCN1CCN(c2cc(-c3ccccc3)c(C(F)(F)F)nn2)CC1 [Example E24]	129.8 °C	5370 nM	> 10000 nM	67.6 nM	–	–
CCCCN1CCN(c2cc(-c3ccccc3)c(C(F)(F)F)nn2)CC1 [Example E25]	102.9 °C	2690 nM	2.63 nM	69.2 nM	–	–
FC(F)(F)c1nnc(N2CCNCC2)cc1-c1ccc(Cl)s1 [Example E27, 4-(5-Chloro-thiophen-2-yl)-6-piperazin-1-yl-3-trifluoromethyl-pyridazine]	–	794 nM	> 10000 nM	1510 nM	–	–
Cc1cc(F)ccc1-c1cc(N2CCNCC2)nnc1C(F)(F)F [Example E28]	–	245 nM	47.9 nM	372 nM	–	–
Cc1cscc1-c1cc(N2CCNCC2)nnc1C(F)(F)F [Example E29]	101 °C	537 nM	> 10000 nM	3550 nM	–	–
COc1ccccc1-c1cc(N2CCNCC2)nnc1C(F)(F)F [Example E31]	–	1120 nM	479 nM	> 10000 nM	–	–
CN(C)c1ccc(-c2cc(N3CCNCC3)nnc2C(F)(F)F)cc1 [Example E32]	–	977 nM	1290 nM	> 10000 nM	–	–
Fc1ccccc1-c1cc(N2CCNCC2)nnc1C(F)(F)F [Example E33]	–	1290 nM	–	1230 nM	–	52.5 nM
FC(F)(F)c1nnc(N2CCNCC2)cc1-c1cc(Cl)ccc1Cl [Example E34]	–	794 nM	87.1 nM	4680 nM	–	–
FC(F)(F)c1nnc(N2CCN(Cc3ccccc3)CC2)cc1-c1ccccc1 [Example E36]	–	6610 nM	> 10000 nM	33.1 nM	–	–
FC(F)(F)c1nnc(N2CCN(Cc3cccnc3)CC2)cc1-c1ccccc1 [Example E37]	–	> 10000 nM	178 nM	562 nM	–	–
FC(F)(F)c1nnc(N2CCN(Cc3ccccn3)CC2)cc1-c1ccccc1 [Example E38]	–	> 10000 nM	87.1 nM	282 nM	–	–
FC(F)(F)c1nnc(N2CCN(CC3CC3)CC2)cc1-c1ccccc1 [Example E39]	–	3890 nM	> 10000 nM	60.3 nM	–	–
